The test system of one data set is A549 cells. Nature of the data set: Cytotoxic activity on human tumour line A549, neutral red, 96 hours. The format is cell-based. To be noted: Homo sapiens, A549, A549; read-out: Cytotox. A549 IC50. The method, then:
The cytotoxic biological activity on human tumour lines is determined according to the following experimental protocol:
The human cell lines A549 are obtained from ATCC (American Type Culture Collection, Rockville, USA). The A549 cells are cultured in a layer in a culture flask in RPMI 1640 medium containing L-glutamine at 2 mM, penicillin 200 U/ml, streptomycin 200 μg/ml and supplemented with 10% heat-inactivated foetal calf serum. The KB cells are cultured in a layer in a culture flask in Dulbelco's medium containing L-glutamine at 2 mM, penicillin 200 U/ml, streptomycin 200 μg/ml and supplemented with 10% heat-inactivated foetal calf serum.
The cells at the exponential growth phase are trypsinized, washed in 1×PBS and are inoculated in 96-well microplates (Costar) in an amount of 4×10^4 cells/ml for A549 and of 1.5×10^4 cells/ml (0.2 ml/well) and then incubated for 96 hours in the presence of variable concentrations of product to be studied (10, 1, 0.1 and 0.01 μM, each point in quadruplicate). 16 hours before the end of the incubation, 0.02% final of neutral red is added to each well. At the end of the incubation, the cells are washed with 1×PBS and lysed with 1% sodium lauryl sulphate. The cellular incorporation of the dye, which reflects cellular growth, is evaluated by spectro-photometry at a wavelength of 540 nm for each sample with the aid of a Dynatech MR5000 reading apparatus.
For each compound concentration tested, the results are expressed as percentage of inhibition of cellular growth and calculated from the untreated control and the culture medium free of cells (blank) according to the following formula: (compound value−blank value/cell control value−blank value)×100.
The concentration of compound inducing a 50% inhibition of growth (IC50) is determined with the aid of a semilogarithmic graphical representation of the inhibition values obtained as a function of each of the compound concentrations tested.
A compound is considered to be active as cytotoxic agent if the concentration inhibiting the growth of the tumour cells tested by 50% is in particular less than 10 μM.

Results on 3 molecules are retold here after patent US6887873B2, “Triazine derivatives and their application as antitelomerase agents” (Aventis Pharma S.A., priority 2001, dated 2005).

One may read the melting point as the temperature of the solid-liquid transition. One may read the IC50 as the concentration that inhibits the measured activity by half.

As to `Cc1cc(N(C)C)c2cc(Nc3nc(Nc4ccc5nc(C)cc(N(C)C)c5c4)nc(N4CCN(C)CC4)n3)ccc2n1` [Example 20, 2,4-bis(4-dimethylamino-2-methylquinolin-6-yl)amino-6-(4-methylpiperazin-1-yl)-[1,3,5]triazine], the melting point lay within 256 to 260 °C. In addition, the IC50 with A549 cells was found to be 350 nM.
Take `Cc1cc(N(C)C)c2cc(Nc3nc(Nc4ccc5nc(C)cc(N(C)C)c5c4)nc(N4CCN(C5CCCC5)CC4)n3)ccc2n1` [Example 143]: in the data set on A549 cells, the IC50 turned out to be 520 nM.
The same measure, in the same setting: then `Cc1cc(N)c2cc(Nc3nc(Nc4ccc5nc(C)cc(N)c5c4)nc(OCCN(C)Cc4ccccc4)n3)ccc2n1` [Example 105], with 11600 nM.
